Patent publication US7722890B2, “Synthetic anti-Candida albicans oligosaccharide based vaccines” (Theracarb, Inc., priority 2002, dated 2010)

Columns and labels:
[1] = tested on: IgM monoclonal antibody B6.1; test: competitive inhibition ELISA: binding of IgM MAb B6.1 to C. albicans mannan extract; design: species or system mouse; settings: FIG. 7
Method: (§1) These monoclonal antibodies are IgM B6.1 and IgG C3.1. The affinity of these monoclonal antibodies for the synthesized propyl glycosides was determined in a competitive inhibition ELISA. The monoclonal antibodies, MAb B6.1 (IgM) and MAb C3.1 (IgG3) were produced as concentrated tissue culture supernatants and diluted ˜1:40,000 (B6.1) and ˜1:2000 (C3.1). C. albicans mannan obtained by 2-mercaptoethanol extraction of whole cells without subsequent affinity fractionation^27 was dissolved in PBS (10 μg/mL) and the solution was used to coat 96 well ELISA plates (100 μL, 18 h at 4° C.). The plate was washed five times with PBST containing Tween 20, 0.05% v/v) and blocked for 1 h at room temperature (2% BSA PBS, 100 μL). The monoclonal antibodies were mixed with inhibitor dissolved in PBST at concentrations in the range between 0.1 μM to 1 mM, and the resulting solutions were added to the coated microtitre plate in triplicate and incubated at room temperature for 18 h. The plate was washed with PBST (5×), and goat anti-mouse (IgG or IgM) antibody conjugated to horseradish peroxidase (diluted 1:2000, Kirkegaard and Perry Lab) in PBST (100 μL) was added and incubated for 1 h at room temperature. The plate was washed with PBST (5×), 3,3′,5,5′-tetramethylbenzidine (TMB, 100 μL, Kirkegaard and Perry Lab) was added, and after 2 minutes the colour reaction was stopped by the addition of 1M phosphoric acid (100 μL). Absorbance was read at 450 nm and percent inhibition was calculated relative to wells containing antibody without inhibitor, and the concentration of ligand that gives 50% inhibition is quoted as an IC50 value.

[2] = tested on: MAb C3.1 (IgG3); test: competitive inhibition ELISA: binding of IgG MAb C3.1 to C. albicans mannan extract; design: species or system mouse
Method: as §1, with “The plate was washed with PBST (5×), 3,3′,5,5′-tetramethylbenzidine (TMB, 100 μL, Kirkegaard and Perry Lab) was added, and after 2 minutes the colour reaction was stopped by the addition of 1M phosphoric acid (100 μL). Absorbance was read at 450 nm and percent inhibition was calculated relative to wells containing antibody without inhibitor, and the concentration of ligand that gives 50% inhibition is quoted as an IC50 value.” left out

| Molecule | affinity of IgM antibody B6.1 for propyl mannosides [1] | affinity / inhibition curve for the IgG antibody ([2]; FIG. 8) | affinity for the IgG antibody relative to the IgM MAb ([2]; FIG. 8 vs FIG. 7) |
| --- | --- | --- | --- |
| CCCO[C@@H]1O[C@H](CO)[C@@H](O)[C@H](O)[C@@H]1O[C@@H]1O[C@H](CO)[C@@H](O)[C@H](O)[C@@H]1O [compound 17] | surprisingly high affinity | flattened binding curve |  |
| CCCOC1OC(CO)C(O)C(O)C1OC1OC(CO)C(O)C(O)C1OC1OC(CO)C(O)C(O)C1O (centres unmarked) [compound 18] | surprisingly high affinity |  | two fold |
| propyl (1-thio-β-D-mannopyranosyl)-(1→2)-β-D-mannopyranotrioside [compound 32] | falls between the tri and tetrasaccharide in affinity |  |  |
